These are literature values, as cited in patent US20220142894A1, “A PROCESS OF COLORING KERATINOUS MATERIAL COMPRISING THE USE OF AN ORGANOSILICON COMPOUND, AN EFFECT PIGMENT, AND A SEALING REAGENT V” (Henkel AG & Co. KGaA, priority 2019, published 2022).

For this data set the following is noted: 25° C.

Turning to `O=C([O-])C1=NN(c2ccc(S(=O)(=O)[O-])cc2)C(=O)C1N=Nc1ccc(S(=O)(=O)[O-])cc1.[Na+].[Na+].[Na+]` (centres unmarked) [Acid Yellow 23, trisodium salt of 4,5-dihydro-5-oxo-1-(4-sulfophenyl)-4-((4-sulfophenyl)azo)-1H-pyrazole-3-carboxylic acid], the “solubility in water (in words)” value is “highly soluble”.

For the compound `Nc1cc(S(=O)(=O)[O-])cc2cc(S(=O)(=O)[O-])c(N=Nc3ccccc3)c(O)c12.[Na+].[Na+]` [Acid Red 33, disodium salt of 5-amino-4-hydroxy-3-(phenylazo)-naphthalene-2,7-disulphonate], the solubility in water is 2500 µg/mL.

For `O=S(=O)([O-])c1ccc(N=Nc2c(O)ccc3ccccc23)cc1.[Na+]` [Acid Orange 7, sodium salt of 4-[(2-hydroxy-1-naphthyl)azo]benzene sulphonate], the solubility in water result is on record as “more than 7 g/L”.

In the case of `O=C([O-])c1c(Cl)c(Cl)c(Cl)c(Cl)c1-c1c2c(Br)cc(=O)c(Br)c-2oc2c(Br)c(O)cc(Br)c12.O=C([O-])c1c(Cl)c(Cl)c(Cl)c(Cl)c1-c1c2c(Br)cc(=O)c(Br)c-2oc2c(Br)c(O)cc(Br)c12.[Na+].[Na+]` [Acid Red 92, disodium salt of 3,4,5,6-tetrachloro-2-(1,4,5,8-tetrabromo-6-hydroxy-3-oxoxanthen-9-yl)benzoic acid], the solubility in water entry was “greater than 10 g/L”.

Turning to `CCN(Cc1cccc(S(=O)(=O)[O-])c1)c1ccc(C(=C2C=CC(=[N+](CC)Cc3cccc(S(=O)(=O)[O-])c3)C=C2)c2ccccc2S(=O)(=O)[O-])cc1.[Na+].[Na+]` [Acid Blue 9], the solubility in water result is recorded as “more than 20 % by weight”.
